Columns and labels:
[1] = DRUGMATRIX: GABAA, Muscimol, Central radioligand binding (ligand: [3H] Muscimol); assay type: cell membranes, Rattus norvegicus, Wistar, Brain, Membrane; conditions: Not Active = under 50% inhibition at 10 µM
[2] = molecular target: T1, Progesterone receptor (Bos taurus, UniProt Q690N0); assay: DRUGMATRIX: Progesterone radioligand binding (ligand: [3H] R-5020); assay type: tissue-based, Uterus; conditions: Not Active = under 50% inhibition at 10 µM; for Ki: read-out: Ki
T1 sequence (Q690N0 whole entry): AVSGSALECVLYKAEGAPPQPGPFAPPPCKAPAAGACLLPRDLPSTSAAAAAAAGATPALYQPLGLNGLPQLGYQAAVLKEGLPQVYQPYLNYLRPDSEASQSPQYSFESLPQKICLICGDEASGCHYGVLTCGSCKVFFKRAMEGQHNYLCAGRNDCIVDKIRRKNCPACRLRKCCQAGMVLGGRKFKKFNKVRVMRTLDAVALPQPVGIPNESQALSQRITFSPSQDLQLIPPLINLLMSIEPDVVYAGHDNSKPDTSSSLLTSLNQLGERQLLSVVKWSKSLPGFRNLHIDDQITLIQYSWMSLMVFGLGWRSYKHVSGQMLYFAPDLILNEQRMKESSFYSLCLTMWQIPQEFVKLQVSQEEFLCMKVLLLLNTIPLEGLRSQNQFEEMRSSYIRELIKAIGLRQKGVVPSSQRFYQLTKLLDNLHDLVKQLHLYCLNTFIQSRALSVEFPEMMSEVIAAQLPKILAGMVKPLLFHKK

[3] = molecular target: 5-hydroxytryptamine receptor 6 (Homo sapiens, UniProt P50406); assay type: cell membranes, HeLa, Membrane; conditions: hela; note: in other assays of this panel Not Active means under 50% inhibition at 10 µM
Sequence of 5-hydroxytryptamine receptor 6 (P50406 whole entry): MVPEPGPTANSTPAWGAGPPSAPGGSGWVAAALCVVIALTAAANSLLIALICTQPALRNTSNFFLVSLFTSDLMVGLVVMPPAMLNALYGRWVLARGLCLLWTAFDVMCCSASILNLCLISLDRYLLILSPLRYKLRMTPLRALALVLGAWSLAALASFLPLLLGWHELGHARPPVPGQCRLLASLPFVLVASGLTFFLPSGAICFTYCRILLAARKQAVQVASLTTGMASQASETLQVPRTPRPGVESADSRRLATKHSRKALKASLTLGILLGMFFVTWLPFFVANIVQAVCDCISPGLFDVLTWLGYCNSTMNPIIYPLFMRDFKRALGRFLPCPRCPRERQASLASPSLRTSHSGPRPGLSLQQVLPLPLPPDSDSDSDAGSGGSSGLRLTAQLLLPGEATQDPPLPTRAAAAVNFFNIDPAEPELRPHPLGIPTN

[4] = molecular target: T2, Alpha-1D adrenergic receptor (Homo sapiens, UniProt P25100); assay type: cell membranes, HEK293, Membrane; conditions: hek293; note: in other assays of this panel Not Active means under 50% inhibition at 10 µM
T2 sequence (P25100 whole entry): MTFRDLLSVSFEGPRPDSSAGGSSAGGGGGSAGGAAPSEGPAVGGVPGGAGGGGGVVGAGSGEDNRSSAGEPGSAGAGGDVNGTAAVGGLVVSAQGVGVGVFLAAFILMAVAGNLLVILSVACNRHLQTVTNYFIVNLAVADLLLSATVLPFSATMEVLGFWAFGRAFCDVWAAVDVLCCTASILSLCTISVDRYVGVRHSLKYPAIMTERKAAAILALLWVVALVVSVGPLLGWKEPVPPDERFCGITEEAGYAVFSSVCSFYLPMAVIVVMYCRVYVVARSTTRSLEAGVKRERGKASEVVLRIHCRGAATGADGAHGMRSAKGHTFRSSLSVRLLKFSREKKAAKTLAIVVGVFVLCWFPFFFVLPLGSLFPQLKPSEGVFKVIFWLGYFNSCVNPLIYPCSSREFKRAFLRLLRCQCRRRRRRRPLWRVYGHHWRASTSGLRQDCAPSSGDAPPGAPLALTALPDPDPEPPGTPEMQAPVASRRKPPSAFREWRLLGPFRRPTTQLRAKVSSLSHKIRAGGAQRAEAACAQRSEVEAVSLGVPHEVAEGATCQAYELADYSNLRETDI

[5] = DRUGMATRIX: Interleukin IL-1 radioligand binding (ligand: [125I] interleukin 1beta); assay type: cell membranes, Membrane; conditions: nih3t3; Not Active = under 50% inhibition at 10 µM
[6] = molecular target: Protein kinase C alpha type (Homo sapiens, UniProt P17252); assay type: cell-based; conditions: sf9;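 note: inhibition of PKCalpha kinase activity measured in an enzyme assay with histone as the phosphorylation substrate; in other assays of this panel Not Active means under 50% inhibition at 10 µM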
[7] = DRUGMATRIX: Glutamate, Kainate radioligand binding (ligand: [3H] Kainic acid); assay type: cell membranes, Rattus norvegicus, Wistar, Brain, Membrane; conditions: Not Active = under 50% inhibition at 10 µM
[8] = molecular target: T3, Alpha-1A adrenergic receptor (Rattus norvegicus, UniProt P43140); assay: DRUGMATRIX: Alpha-1A adrenergic receptor radioligand binding (ligand: prazosin); assay type: cell membranes, Wistar, Submaxillary gland, Membrane; conditions: Not Active = under 50% inhibition at 10 µM
T3 sequence (P43140 whole entry): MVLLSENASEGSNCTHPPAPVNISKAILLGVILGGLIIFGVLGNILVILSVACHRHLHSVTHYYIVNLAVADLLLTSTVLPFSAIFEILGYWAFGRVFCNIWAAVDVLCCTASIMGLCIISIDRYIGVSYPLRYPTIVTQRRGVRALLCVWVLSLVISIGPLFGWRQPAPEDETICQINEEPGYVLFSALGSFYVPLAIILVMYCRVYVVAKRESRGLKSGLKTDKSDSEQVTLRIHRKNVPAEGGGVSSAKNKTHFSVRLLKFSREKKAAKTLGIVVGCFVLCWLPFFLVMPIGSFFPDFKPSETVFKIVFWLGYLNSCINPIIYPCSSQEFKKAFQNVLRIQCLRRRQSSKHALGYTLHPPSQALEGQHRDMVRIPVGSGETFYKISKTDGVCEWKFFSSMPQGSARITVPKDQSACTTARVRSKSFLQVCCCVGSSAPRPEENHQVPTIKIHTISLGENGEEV

Compound	IC50 [1]	Ki [1]	IC50 [2]	IC50 [3]	IC50 [4]	IC50 [5]	Ki [5]	IC50 [6]	IC50 [7]	Ki [7]	IC50 [8]	IC50 ([2]; read-out: IC50)	Ki [2]
Cn1c(=O)c2c(ncn2CC2OCCO2)n(C)c1=O [DOXOFYLLINE]	Not Active	Not Active	Not Active	Not Active	Not Active	Not Active	Not Active	Not Active	Not Active	Not Active	Not Active	–	–
COc1cccc2c1C(=O)c1c(O)c3c(c(O)c1C2=O)C[C@@](O)(C(=O)CO)C[C@@H]3O[C@H]1C[C@H](N)[C@H](O)[C@H](C)O1 [DOXORUBICIN]	Not Active	Not Active	Not Active	Not Active	Not Active	Not Active	Not Active	Not Active	Not Active	Not Active	Not Active	–	–
COc1cccc2c1C(=O)c1c(O)c3c(c(O)c1C2=O)C[C@@](O)(C(=O)CO)C[C@@H]3O[C@H]1C[C@H](N)[C@@H](O)[C@H](C)O1 [EPIRUBICIN]	Not Active	Not Active	Not Active	Not Active	Not Active	Not Active	Not Active	Not Active	Not Active	Not Active	Not Active	–	–
C[C@]12CC[C@@H]3c4ccc(OC(=O)c5ccccc5)cc4CC[C@H]3[C@@H]1CC[C@@H]2O [ESTRADIOL BENZOATE]	Not Active	Not Active	–	Not Active	Not Active	Not Active	Not Active	Not Active	Not Active	Not Active	Not Active	9610 nM	1250 nM
C[C@]12CC[C@@H]3c4ccc(O)cc4CC[C@H]3[C@@H]1CC[C@@H]2O [ESTRADIOL]	Not Active	Not Active	–	Not Active	Not Active	Not Active	Not Active	Not Active	Not Active	Not Active	Not Active	32600 nM	4250 nM
CC[C@@H](CO)NCCN[C@@H](CC)CO [ETHAMBUTOL]	Not Active	Not Active	Not Active	Not Active	Not Active	Not Active	Not Active	Not Active	Not Active	Not Active	Not Active	–	–
CC1(C)O[C@@H]2C[C@H]3[C@@H]4C[C@H](F)C5=CC(=O)C=C[C@]5(C)[C@H]4[C@@H](O)C[C@]3(C)[C@]2(C(=O)CO)O1 [FLUNISOLIDE]	Not Active	Not Active	–	Not Active	Not Active	Not Active	Not Active	Not Active	Not Active	Not Active	Not Active	359 nM	47 nM
CC1(C)O[C@@H]2C[C@H]3[C@@H]4C[C@H](F)C5=CC(=O)C=C[C@]5(C)[C@@]4(F)[C@@H](O)C[C@]3(C)[C@]2(C(=O)CO)O1 [FLUOCINOLONE ACETONIDE]	Not Active	Not Active	–	Not Active	Not Active	Not Active	Not Active	Not Active	Not Active	Not Active	Not Active	26 nM	3.35 nM
CC1(C)O[C@@H]2C[C@H]3[C@@H]4C[C@H](F)C5=CC(=O)CC[C@]5(C)[C@H]4[C@@H](O)C[C@]3(C)[C@]2(C(=O)CO)O1 [FLURANDRENOLIDE]	Not Active	Not Active	–	Not Active	Not Active	Not Active	Not Active	Not Active	Not Active	Not Active	Not Active	172 nM	22 nM
